This is an account of results in ChEMBL document CHEMBL1138462 (J Med Chem, 2009).

Each structure is given as a SMILES string. The source made the active and inactive calls. The rule behind the calls is not given here.

Data set [1] addresses T1, Cannabinoid receptor 1 (Homo sapiens, UniProt P21554). Format: functional, cell-based, CHO-K1.
Description: Antagonist activity at human CB1 receptor expressed in CHOK1 cells assessed as inhibition of CP-55940-induced response after 10 mins by GTPgamma[35S] binding assay
Data set [2] has as its target T1, Cannabinoid receptor 1. Kind of data set: Binding affinity to CB1 receptor.
In another data set the target is Cannabinoid receptor 2 (Homo sapiens, UniProt P34972). Kind of data set: Binding affinity to CB2 receptor.
Chain of Cannabinoid receptor 2 (P34972 whole entry): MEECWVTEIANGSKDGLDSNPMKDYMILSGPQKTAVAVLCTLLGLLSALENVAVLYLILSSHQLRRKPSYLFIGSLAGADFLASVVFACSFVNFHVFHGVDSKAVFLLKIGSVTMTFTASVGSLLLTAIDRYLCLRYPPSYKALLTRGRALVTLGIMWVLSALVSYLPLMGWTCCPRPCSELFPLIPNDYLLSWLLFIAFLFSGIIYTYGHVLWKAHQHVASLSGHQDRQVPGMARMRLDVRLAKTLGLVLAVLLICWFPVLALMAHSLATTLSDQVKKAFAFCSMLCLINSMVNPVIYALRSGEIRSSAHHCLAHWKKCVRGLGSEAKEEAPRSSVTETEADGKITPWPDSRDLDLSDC
For data set [3], the species on record is Rattus norvegicus. The data set is described as follows: Anorectic activity in acute food intake rat model assessed as decrease in food intake. It is filed as functional, organism-based.
Data set [4] can be described thus: Half life in rat at 1 mg/kg, iv and 5 mg/kg, po. It is filed as ADME, organism-based. Particulars: in vivo.
Data set [5] is described as follows: Volume of distribution at steady state in rat at 1 mg/kg, iv and 5 mg/kg, po. It is filed as ADME, organism-based. Particulars: in vivo, read-out: Vdss.
The species named for data set [6] is Rattus norvegicus. The data set is described as follows: Anorectic activity in acute food intake rat model assessed as increase in fat oxidation. Format: functional, organism-based.
In data set [7] the test system is Mus musculus. The data set is described as follows: Inhibition of CP-55940-induced catalepsy in ICR mouse at 1 mg/kg, sc administered 15 mins before CP-55940 challenge measured after 90 mins. Format: functional, organism-based. On the set-up: dose 1 mg/kg.
Data set [8] has as its system Mus musculus. The data set is described as follows: Inhibition of CP-55940-induced analgesia in ICR mouse at 1 mg/kg, sc administered 15 mins before CP-55940 challenge measured after 45 mins by hot plate method. It is filed as functional, organism-based. Also on record: dose 1 mg/kg.
Data set [9] concerns Mus musculus. Kind of data set: Inhibition of CP-55940-induced locomotor activity in ICR mouse at 1 mg/kg, sc administered 15 mins before CP-55940 challenge measured after 25 mins. It is filed as functional, organism-based. On the set-up: dose 1 mg/kg.
The species named for data set [10] is Rattus norvegicus. Kind of data set: Anorectic activity in acute food intake rat model assessed as increase in energy expenditure. It is filed as functional, organism-based.
The nature of data set [11]: Oral bioavailability in rat at 500 mg/kg. Format: ADME, organism-based. Particulars: in vivo.
In data set [12] the test system is Rattus norvegicus. The data set is described as follows: Toxicity in po dosed rat after 4 days. Format: organism-based. Particulars: in vivo, 96 h.
Data set [13] is described as follows: Bioavailability in rat at 1 mg/kg, iv and 5 mg/kg, po. Particulars: in vivo. Format: ADME, organism-based.
A short description of data set [14]: Aqueous solubility of the compound. Conditions: buffer. Format: physicochemical.
The test system of data set [15] is Mus musculus. The data set is described as follows: Inhibition of CP-55940-induced hypothermia in ICR mouse at 1 mg/kg, sc administered 15 mins before CP-55940 challenge measured after 65 mins. On the set-up: dose 1 mg/kg. It is filed as functional, organism-based.
Data set [16] can be described thus: Solubility in sodium taurocholate/phosphatidyl choline salt medium. Format: physicochemical.
Data set [17] is filed under the species Rattus norvegicus. Kind of data set: Toxicity in Sprague-Dawley rat assessed as behavioral side effects and rapid respiration at concentration >=10 fold of plasma level. Format: organism-based. Particulars: in vivo.
In data set [18] the test system is Rattus norvegicus. The data set is described as follows: Antiobesity activity in fast-induced refeeding Sprague-Dawley rat model assessed as reduction in food intake at 3 mg/kg, po administered 30 mins prior to food intake measured every 10 mins for 2 hrs. It is filed as functional. On the set-up: scale not given: the % may be the effect or the level left.
In data set [19] the test system is Mus musculus. Kind of data set: Antiobesity activity in diet-induced obese mouse assessed as reduction in weight gain at 3 mg/kg, po for 7 days. On the set-up: scale not given: the % may be the effect or the level left. It is filed as functional.
For data set [20], the system named is Mus musculus. Kind of data set: Antiobesity activity in diet-induced obese mouse assessed as reduction in food intake at 3 mg/kg, po for 7 days. Format: functional. On the set-up: scale not given: the % may be the effect or the level left.
Data set [21] has as its system Mus musculus. Kind of data set: Antiobesity activity in diet-induced obese mouse assessed as reduction in weight gain at 1 mg/kg, po for 7 days. Format: functional. Also on record: scale not given: the % may be the effect or the level left.
In data set [22] the test system is Rattus norvegicus. Kind of data set: Inhibition of CP-55940-induced catalepsy in rat at >=1 mg/kg, sc administered 15 mins before CP-55940 challenge measured after 90 mins.
A short description of data set [23]: Oral bioavailability in rat up to 50 mg/kg. Format: ADME, organism-based. Particulars: in vivo.
The test system of data set [24] is Rattus norvegicus. The data set is described as follows: Inhibition of CP-55940-induced locomotor activity in rat at >=1 mg/kg, sc administered 15 mins before CP-55940 challenge measured after 25 mins.
Data set [25] concerns Rattus norvegicus. The data set is described as follows: Inhibition of CP-55940-induced analgesia in rat at >=1 mg/kg, sc administered 15 mins before CP-55940 challenge measured after 45 mins by hot plate method.
Data set [26] concerns Rattus norvegicus. Kind of data set: Antiobesity activity in fast-induced refeeding Sprague-Dawley rat model assessed as reduction in food intake at 1 mg/kg, po administered 30 mins prior to food intake measured every 10 mins for 2 hrs. It is filed as functional. Also on record: scale not given: the % may be the effect or the level left.
The subject of data set [27] is Mus musculus. Kind of data set: Antiobesity activity in diet-induced obese mouse assessed as reduction in food intake at 1 mg/kg, po for 7 days. It is filed as functional. On the set-up: scale not given: the % may be the effect or the level left.
For data set [28], the system named is Rattus norvegicus. Kind of data set: Inhibition of CP-55940-induced hypothermia in rat at >=1 mg/kg, sc administered 15 mins before CP-55940 challenge measured after 65 mins.

As a reminder, the Ki is the dissociation constant of the complex between target and ligand, obtained from inhibition or displacement. One may read the half-life as the time in which the quantity being followed falls by half. One may read the bioavailability as the share of a dose that reaches the circulation, judged against a reference dose that is usually intravenous.

T1 sequence (P21554 whole entry): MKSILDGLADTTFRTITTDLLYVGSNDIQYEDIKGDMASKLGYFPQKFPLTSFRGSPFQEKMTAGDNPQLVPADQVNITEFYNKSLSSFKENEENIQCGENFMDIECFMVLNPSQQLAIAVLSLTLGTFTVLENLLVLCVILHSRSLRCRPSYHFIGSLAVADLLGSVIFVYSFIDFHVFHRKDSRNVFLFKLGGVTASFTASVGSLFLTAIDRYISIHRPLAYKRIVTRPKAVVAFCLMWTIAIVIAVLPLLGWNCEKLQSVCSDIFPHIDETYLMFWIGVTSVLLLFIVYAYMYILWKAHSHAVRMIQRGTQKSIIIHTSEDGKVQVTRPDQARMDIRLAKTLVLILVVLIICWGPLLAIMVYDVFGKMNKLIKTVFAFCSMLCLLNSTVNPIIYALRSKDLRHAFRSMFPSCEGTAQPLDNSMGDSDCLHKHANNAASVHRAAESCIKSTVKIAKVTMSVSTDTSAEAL

In the case of `O=C1c2nn(-c3ccccc3Cl)c(-c3ccc(Cl)cc3)c2CCN1CC(F)(F)F`, the figures for the inhibition constant Ki at Cannabinoid receptor 1 [1], at Cannabinoid receptor 1 [2] and on Cannabinoid receptor 2 were 3.1 nM, 1.7 nM and above 10000 nM, respectively.

On to `CC(F)(F)CN1CCc2c(nn(-c3ccccc3Cl)c2-c2ccc(Cl)cc2)C1=O`, for which the Activity entry in the data set filed under Rattus norvegicus [3] was “Dose-dependent effect”; in the data set with Rattus norvegicus [12], “Non-toxic”; in the data set listed under Rattus norvegicus [17] it was “Non-toxic”. In data set [4], this compound showed a half-life of 3.6 h. Besides, the Vd in [5] stood at 2.6 L/kg. Besides, the outcome in the data set listed under Rattus norvegicus [6], with Mus musculus [7], in the data set with Mus musculus [8], with Mus musculus [9], in the data set listed under Rattus norvegicus [10] and in the data set on Mus musculus [15] was Active. For the same compound, the bioavailability was found to be 50% in data set [11] and 99% in [13]. Further, the solubility was found to be 0.2 ugA/ml in [14] and 18.5 ugA/ml in [16]. The compound further showed an inhibitory constant (Ki) at Cannabinoid receptor 2 above 10000 nM.

Turning to `Cc1c(C(=O)NN2CCCCC2)nn(-c2ccc(Cl)cc2Cl)c1-c1ccc(Cl)cc1` [RIMONABANT], the results for the Activity in the data set with Rattus norvegicus [18], with Mus musculus [19] and in the data set on Mus musculus [20] were 43%, 5.2% and 21%, respectively.

Take `O=C1c2nn(-c3ccccc3Cl)c(-c3ccc(Cl)cc3)c2CCN1C1CCCC1`: at Cannabinoid receptor 1 [2], the affinity corresponds to a Ki of 24 nM.

For the compound `CCC(F)(F)CN1CCOc2c(nn(-c3ccccc3Cl)c2-c2ccc(Cl)cc2)C1=O`, the Ki on Cannabinoid receptor 1 [1] was 0.7 nM; on Cannabinoid receptor 1 [2], 1.4 nM; at Cannabinoid receptor 2, above 10000 nM.

For `CC(F)(F)CN1CCc2c(nn(-c3ccccc3Cl)c2-c2ccc(Cl)cc2)C1`, on Cannabinoid receptor 1 [2], the Ki worked out at 30 nM.

With `CC(C)N1CCOc2c(nn(-c3ccccc3Cl)c2-c2ccc(Cl)cc2)C1=O`, the values for the Ki on Cannabinoid receptor 1 [1], at Cannabinoid receptor 1 [2] and at Cannabinoid receptor 2 were 4.8 nM, 1.3 nM and above 10000 nM, respectively.

In turn, `COC(C)(C)CN1CCc2c(nn(-c3ccccc3Cl)c2-c2ccc(Cl)cc2)C1=O` yielded a Ki on Cannabinoid receptor 2 of 162 nM.

Consider `CC(F)(F)CN1CCOc2c(nn(-c3ccccc3Cl)c2-c2ccc(Cl)cc2)C1=O`, for which the values for the Activity with Mus musculus [21], with Rattus norvegicus [26] and with Mus musculus [27] were 5.9%, 40% and 23%, respectively. Besides, the outcome with Rattus norvegicus [22], with Rattus norvegicus [24], in the data set on Rattus norvegicus [25] and with Rattus norvegicus [28] was Active. The Vd in [5] stood at 2.6 L/kg. For the same compound, the bioavailability is 51% in [23] and 42% in data set [13].

As to `CC(C)(C)N1CCc2c(nn(-c3ccccc3Cl)c2-c2ccc(Cl)cc2)C1=O`, the results for the Ki on Cannabinoid receptor 1 [1], on Cannabinoid receptor 1 [2] and at Cannabinoid receptor 2 were 11 nM, 4.7 nM and 6810 nM, respectively.

As for `CC(C)N1CCc2c(nn(-c3ccccc3Cl)c2-c2ccc(Cl)cc2)C1=O`, the Ki on Cannabinoid receptor 1 [1] is 5.5 nM; on Cannabinoid receptor 1 [2] it was 2.5 nM; on Cannabinoid receptor 2, above 10000 nM.

Compound `Cc1nc2c(-c3ccc(Cl)cc3)n(-c3ccccc3Cl)nc2c(=O)n1CC(F)(F)F` yielded an inhibition constant (Ki) on Cannabinoid receptor 2 above 10000 nM. Also, in the data set filed under Rattus norvegicus [17], the Activity entry is on record as “Toxic”.

`CCN1CCc2c(nn(-c3ccccc3Cl)c2-c2ccc(Cl)cc2)C1=O`: the Ki on Cannabinoid receptor 1 [1] was determined as 25 nM; at Cannabinoid receptor 1 [2], 4.7 nM; on Cannabinoid receptor 2, 23400 nM.

Consider `CC(C)CN1CCc2c(nn(-c3ccccc3Cl)c2-c2ccc(Cl)cc2)C1=O`, for which the Ki on Cannabinoid receptor 1 [1] stood at 9.8 nM; on Cannabinoid receptor 1 [2], 2.5 nM; at Cannabinoid receptor 2, 1780 nM.

Take `O=C1c2nn(-c3ccccc3Cl)c(-c3ccc(Cl)cc3)c2OCCN1CC(F)(F)F`: the values for the Ki at Cannabinoid receptor 1 [1], at Cannabinoid receptor 1 [2] and on Cannabinoid receptor 2 were 1.5 nM, 1.9 nM and above 10000 nM, respectively.
